# Test results from ChEMBL document CHEMBL1201861, “Genomics of Drug Sensitity in Cancer screening data, Wellcome Trust Sanger Institute”.
# Test system: A-431;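 note: growth inhibition of A-431 cells, determined with a cell viability read-out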
# Assay: cells
# Type: functional, cell-based
# Conditions: Homo sapiens
# Description: SANGER: Inhibition of human A431 cell growth in a cell viability assay.
row,Compound,IC50 [µM]
1,CS(=O)(=O)N1CCN(Cc2cc3nc(-c4cccc5[nH]ncc45)nc(N4CCOCC4)c3s2)CC1 [PICTILISIB],2.27

# Test system: UMC-11;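 note: growth inhibition of UMC-11 cells, read out with a cell viability assay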
# Assay: cells
# Type: functional, cell-based
# Conditions: Homo sapiens
# Description: SANGER: Inhibition of human UMC-11 cell growth in a cell viability assay.
row,Compound,IC50 [µM]
1,CS(=O)(=O)N1CCN(Cc2cc3nc(-c4cccc5[nH]ncc45)nc(N4CCOCC4)c3s2)CC1 [PICTILISIB],> 4

# Test system: MKN-28;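 note: cell viability assay read-out, IC50 reflects suppression of growth of human MKN-28 cells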
# Assay: cells
# Type: functional, cell-based
# Conditions: Homo sapiens
# Description: SANGER: Inhibition of human MKN28 cell growth in a cell viability assay.
row,Compound,IC50 [µM]
1,CS(=O)(=O)N1CCN(Cc2cc3nc(-c4cccc5[nH]ncc45)nc(N4CCOCC4)c3s2)CC1 [PICTILISIB],> 4

# Test system: NCI-H28;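 note: growth inhibition of human NCI-H28 cells, read out as cell viability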
# Assay: cells
# Type: functional, cell-based
# Conditions: Homo sapiens
# Description: SANGER: Inhibition of human NCI-H28 cell growth in a cell viability assay.
row,Compound,IC50 [µM]
1,CS(=O)(=O)N1CCN(Cc2cc3nc(-c4cccc5[nH]ncc45)nc(N4CCOCC4)c3s2)CC1 [PICTILISIB],3.05

# Test system: MHH-ES-1;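 note: cell growth inhibition measured by a cell viability assay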
# Assay: cells
# Type: functional, cell-based
# Conditions: Homo sapiens
# Description: SANGER: Inhibition of human MHH-ES-1 cell growth in a cell viability assay.
row,Compound,IC50 [µM]
1,CS(=O)(=O)N1CCN(Cc2cc3nc(-c4cccc5[nH]ncc45)nc(N4CCOCC4)c3s2)CC1 [PICTILISIB],> 4

# Test system: PANC-08-13;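 note: cell growth inhibition, measured with a cell viability assay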
# Assay: cells
# Type: functional, cell-based
# Conditions: Homo sapiens
# Description: SANGER: Inhibition of human PANC-08-13 cell growth in a cell viability assay.
row,Compound,IC50 [µM]
1,CS(=O)(=O)N1CCN(Cc2cc3nc(-c4cccc5[nH]ncc45)nc(N4CCOCC4)c3s2)CC1 [PICTILISIB],> 4

# Test system: NCI-H460;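 note: cell viability assay scoring growth inhibition of human NCI-H460 cells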
# Assay: cells
# Type: functional, cell-based
# Conditions: Homo sapiens
# Description: SANGER: Inhibition of human NCI-H460 cell growth in a cell viability assay.
row,Compound,IC50 [µM]
1,CS(=O)(=O)N1CCN(Cc2cc3nc(-c4cccc5[nH]ncc45)nc(N4CCOCC4)c3s2)CC1 [PICTILISIB],> 4

# Test system: 8305C
# Assay: cells
# Type: functional, cell-based
# Conditions: Homo sapiens
# Description: SANGER: Inhibition of human 8305C cell growth in a cell viability assay.
row,Compound,IC50 [µM]
1,CS(=O)(=O)N1CCN(Cc2cc3nc(-c4cccc5[nH]ncc45)nc(N4CCOCC4)c3s2)CC1 [PICTILISIB],> 4

# Test system: HPAF-II;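 note: growth inhibition of HPAF-II cells, read out with a cell viability assay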
# Assay: cells
# Type: functional, cell-based
# Conditions: Homo sapiens
# Description: SANGER: Inhibition of human HPAF-II cell growth in a cell viability assay.
row,Compound,IC50 [µM]
1,CS(=O)(=O)N1CCN(Cc2cc3nc(-c4cccc5[nH]ncc45)nc(N4CCOCC4)c3s2)CC1 [PICTILISIB],3.1

# Test system: BHT-101
# Assay: cells
# Type: functional, cell-based
# Conditions: Homo sapiens
# Description: SANGER: Inhibition of human BHT-101 cell growth in a cell viability assay.
row,Compound,IC50 [µM]
1,CS(=O)(=O)N1CCN(Cc2cc3nc(-c4cccc5[nH]ncc45)nc(N4CCOCC4)c3s2)CC1 [PICTILISIB],0.545

# Test system: U2OS;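 note: growth inhibition of human U-2-OS cells, determined with a cell viability assay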
# Assay: cells
# Type: functional, cell-based, U-2-OS
# Conditions: Homo sapiens
# Description: SANGER: Inhibition of human U-2-OS cell growth in a cell viability assay.
row,Compound,IC50 [µM]
1,CS(=O)(=O)N1CCN(Cc2cc3nc(-c4cccc5[nH]ncc45)nc(N4CCOCC4)c3s2)CC1 [PICTILISIB],3.14

# Test system: NCI-H1623;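 note: cell viability assay used as the read-out for growth inhibition of NCI-H1623 cells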
# Assay: cells
# Type: functional, cell-based
# Conditions: Homo sapiens
# Description: SANGER: Inhibition of human NCI-H1623 cell growth in a cell viability assay.
row,Compound,IC50 [µM]
1,CS(=O)(=O)N1CCN(Cc2cc3nc(-c4cccc5[nH]ncc45)nc(N4CCOCC4)c3s2)CC1 [PICTILISIB],0.304

# Test system: P12-Ichikawa
# Assay: cells
# Type: functional, cell-based
# Conditions: Homo sapiens
row,Compound,IC50 [µM]
1,CS(=O)(=O)N1CCN(Cc2cc3nc(-c4cccc5[nH]ncc45)nc(N4CCOCC4)c3s2)CC1 [PICTILISIB],> 4

# Test system: RCM-1;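 note: growth inhibition of the RCM-1 line, determined with a cell viability readout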
# Assay: cells
# Type: functional, cell-based
# Conditions: Homo sapiens
# Description: SANGER: Inhibition of human RCM-1 cell growth in a cell viability assay.
row,Compound,IC50 [µM]
1,CS(=O)(=O)N1CCN(Cc2cc3nc(-c4cccc5[nH]ncc45)nc(N4CCOCC4)c3s2)CC1 [PICTILISIB],> 4

# Test system: SCC-25;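 note: growth inhibition of SCC-25 cells, measured with a cell viability assay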
# Assay: cells
# Type: functional, cell-based
# Conditions: Homo sapiens
# Description: SANGER: Inhibition of human SCC-25 cell growth in a cell viability assay.
row,Compound,IC50 [µM]
1,CS(=O)(=O)N1CCN(Cc2cc3nc(-c4cccc5[nH]ncc45)nc(N4CCOCC4)c3s2)CC1 [PICTILISIB],0.914

# Test system: KP-4;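 note: human KP-4 cells, with growth inhibition read out through a cell viability assay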
# Assay: cells
# Type: functional, cell-based
# Conditions: Homo sapiens
# Description: SANGER: Inhibition of human KP-4 cell growth in a cell viability assay.
row,Compound,IC50 [µM]
1,CS(=O)(=O)N1CCN(Cc2cc3nc(-c4cccc5[nH]ncc45)nc(N4CCOCC4)c3s2)CC1 [PICTILISIB],> 4

# Test system: CAL-72;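 note: cell viability assay measuring inhibition of proliferation in the CAL-72 cell line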
# Assay: cells
# Type: functional, cell-based
# Conditions: Homo sapiens
# Description: SANGER: Inhibition of human CAL-72 cell growth in a cell viability assay.
row,Compound,IC50 [µM]
1,CS(=O)(=O)N1CCN(Cc2cc3nc(-c4cccc5[nH]ncc45)nc(N4CCOCC4)c3s2)CC1 [PICTILISIB],> 4

# Test system: EW-22;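 note: growth inhibition of the EW-22 cell line, measured with a cell viability readout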
# Assay: cells
# Type: functional, cell-based
# Conditions: Homo sapiens
# Description: SANGER: Inhibition of human EW-22 cell growth in a cell viability assay.
row,Compound,IC50 [µM]
1,CS(=O)(=O)N1CCN(Cc2cc3nc(-c4cccc5[nH]ncc45)nc(N4CCOCC4)c3s2)CC1 [PICTILISIB],2.25

# Test system: BCPAP;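 note: growth inhibition of BCPAP cells, read out in a cell viability assay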
# Assay: cells
# Type: functional, cell-based
# Conditions: Homo sapiens
# Description: SANGER: Inhibition of human BCPAP cell growth in a cell viability assay.
row,Compound,IC50 [µM]
1,CS(=O)(=O)N1CCN(Cc2cc3nc(-c4cccc5[nH]ncc45)nc(N4CCOCC4)c3s2)CC1 [PICTILISIB],> 4

# Test system: MeWo;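 note: growth inhibition of MeWo cells, determined by a cell viability readout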
# Assay: cells
# Type: functional, cell-based
# Conditions: Homo sapiens
# Description: SANGER: Inhibition of human Mewo cell growth in a cell viability assay.
row,Compound,IC50 [µM]
1,CS(=O)(=O)N1CCN(Cc2cc3nc(-c4cccc5[nH]ncc45)nc(N4CCOCC4)c3s2)CC1 [PICTILISIB],3.42

# Test system: SW948;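 note: growth inhibition of SW948 cells, read out with a cell viability assay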
# Assay: cells
# Type: functional, cell-based
# Conditions: Homo sapiens
# Description: SANGER: Inhibition of human SW948 cell growth in a cell viability assay.
row,Compound,IC50 [µM]
1,CS(=O)(=O)N1CCN(Cc2cc3nc(-c4cccc5[nH]ncc45)nc(N4CCOCC4)c3s2)CC1 [PICTILISIB],> 4

# Test system: SK-MEL-28;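 note: growth inhibition of human SK-MEL-28 cells, read out with a cell viability assay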
# Assay: cells
# Type: functional, cell-based
# Conditions: Homo sapiens
# Description: SANGER: Inhibition of human SK-MEL-28 cell growth in a cell viability assay.
row,Compound,IC50 [µM]
1,CS(=O)(=O)N1CCN(Cc2cc3nc(-c4cccc5[nH]ncc45)nc(N4CCOCC4)c3s2)CC1 [PICTILISIB],1.56

# Test system: SK-MEL-30;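 note: growth inhibition of SK-MEL-30 cells, determined with a cell viability assay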
# Assay: cells
# Type: functional, cell-based
# Conditions: Homo sapiens
# Description: SANGER: Inhibition of human SK-MEL-30 cell growth in a cell viability assay.
row,Compound,IC50 [µM]
1,CS(=O)(=O)N1CCN(Cc2cc3nc(-c4cccc5[nH]ncc45)nc(N4CCOCC4)c3s2)CC1 [PICTILISIB],> 4

# Test system: SF-295;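 note: growth inhibition of SF-295 cells, read out with a cell viability assay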
# Assay: cells
# Type: functional, cell-based
# Conditions: Homo sapiens
# Description: SANGER: Inhibition of human SF295 cell growth in a cell viability assay.
row,Compound,IC50 [µM]
1,CS(=O)(=O)N1CCN(Cc2cc3nc(-c4cccc5[nH]ncc45)nc(N4CCOCC4)c3s2)CC1 [PICTILISIB],2.32

# Test system: 5637
# Assay: cells
# Type: functional, cell-based
# Conditions: Homo sapiens
# Description: SANGER: Inhibition of human 5637 cell growth in a cell viability assay.
row,Compound,IC50 [µM]
1,CS(=O)(=O)N1CCN(Cc2cc3nc(-c4cccc5[nH]ncc45)nc(N4CCOCC4)c3s2)CC1 [PICTILISIB],2.71

# Test system: ChaGo-K-1;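 note: growth inhibition of ChaGo-K-1 cells, read out with a cell viability assay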
# Assay: cells
# Type: functional, cell-based
# Conditions: Homo sapiens
# Description: SANGER: Inhibition of human ChaGo-K-1 cell growth in a cell viability assay.
row,Compound,IC50 [µM]
1,CS(=O)(=O)N1CCN(Cc2cc3nc(-c4cccc5[nH]ncc45)nc(N4CCOCC4)c3s2)CC1 [PICTILISIB],> 4

# Test system: HT55;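 note: cell viability readout measuring growth inhibition of human HT55 cells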
# Assay: cells
# Type: functional, cell-based
# Conditions: Homo sapiens
# Description: SANGER: Inhibition of human HT55 cell growth in a cell viability assay.
row,Compound,IC50 [µM]
1,CS(=O)(=O)N1CCN(Cc2cc3nc(-c4cccc5[nH]ncc45)nc(N4CCOCC4)c3s2)CC1 [PICTILISIB],> 4

# Test system: HSC-3
# Assay: cells
# Type: functional, cell-based
# Conditions: Homo sapiens
# Description: SANGER: Inhibition of human HSC-3 cell growth in a cell viability assay.
row,Compound,IC50 [µM]
1,CS(=O)(=O)N1CCN(Cc2cc3nc(-c4cccc5[nH]ncc45)nc(N4CCOCC4)c3s2)CC1 [PICTILISIB],0.84

# Test system: MG-63;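 note: growth inhibition of human MG-63 cells, read out with a cell viability assay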
# Assay: cells
# Type: functional, cell-based
# Conditions: Homo sapiens
# Description: SANGER: Inhibition of human MG-63 cell growth in a cell viability assay.
row,Compound,IC50 [µM]
1,CS(=O)(=O)N1CCN(Cc2cc3nc(-c4cccc5[nH]ncc45)nc(N4CCOCC4)c3s2)CC1 [PICTILISIB],0.541

# Test system: SK-N-AS;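 note: growth inhibition of human SK-N-AS cells, measured with a cell viability assay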
# Assay: cells
# Type: functional, cell-based
# Conditions: Homo sapiens
# Description: SANGER: Inhibition of human SK-N-AS cell growth in a cell viability assay.
row,Compound,IC50 [µM]
1,CS(=O)(=O)N1CCN(Cc2cc3nc(-c4cccc5[nH]ncc45)nc(N4CCOCC4)c3s2)CC1 [PICTILISIB],> 4

# Test system: DK-MG;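 note: growth inhibition of DK-MG cells, read out with a cell viability assay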
# Assay: cells
# Type: functional, cell-based
# Conditions: Homo sapiens
# Description: SANGER: Inhibition of human DK-MG cell growth in a cell viability assay.
row,Compound,IC50 [µM]
1,CS(=O)(=O)N1CCN(Cc2cc3nc(-c4cccc5[nH]ncc45)nc(N4CCOCC4)c3s2)CC1 [PICTILISIB],> 4

# Test system: WM-115
# Assay: cells
# Type: functional, cell-based
# Conditions: Homo sapiens
# Description: SANGER: Inhibition of human WM-115 cell growth in a cell viability assay.
row,Compound,IC50 [µM]
1,CS(=O)(=O)N1CCN(Cc2cc3nc(-c4cccc5[nH]ncc45)nc(N4CCOCC4)c3s2)CC1 [PICTILISIB],1.07

# Test system: SAOS-2;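 note: growth inhibition of human Saos-2 cells determined by a cell viability assay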
# Assay: cells
# Type: functional, cell-based
# Conditions: Homo sapiens
# Description: SANGER: Inhibition of human Saos-2 cell growth in a cell viability assay.
row,Compound,IC50 [µM]
1,CS(=O)(=O)N1CCN(Cc2cc3nc(-c4cccc5[nH]ncc45)nc(N4CCOCC4)c3s2)CC1 [PICTILISIB],1.33

# Test system: OVCAR-8;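 note: growth inhibition of human OVCAR-8 cells, read out by a cell viability assay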
# Assay: cells
# Type: functional, cell-based
# Conditions: Homo sapiens
# Description: SANGER: Inhibition of human OVCAR-8 cell growth in a cell viability assay.
row,Compound,IC50 [µM]
1,CS(=O)(=O)N1CCN(Cc2cc3nc(-c4cccc5[nH]ncc45)nc(N4CCOCC4)c3s2)CC1 [PICTILISIB],> 4

# Test system: Huh-7;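 note: HuH-7 cell growth inhibition, read out with a cell viability assay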
# Assay: cells
# Type: functional, cell-based
# Conditions: Homo sapiens
# Description: SANGER: Inhibition of human HuH-7 cell growth in a cell viability assay.
row,Compound,IC50 [µM]
1,CS(=O)(=O)N1CCN(Cc2cc3nc(-c4cccc5[nH]ncc45)nc(N4CCOCC4)c3s2)CC1 [PICTILISIB],1.21

# Test system: EFM-19;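 note: growth inhibition of human EFM-19 cells, measured in a cell viability assay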
# Assay: cells
# Type: functional, cell-based
# Conditions: Homo sapiens
# Description: SANGER: Inhibition of human EFM-19 cell growth in a cell viability assay.
row,Compound,IC50 [µM]
1,CS(=O)(=O)N1CCN(Cc2cc3nc(-c4cccc5[nH]ncc45)nc(N4CCOCC4)c3s2)CC1 [PICTILISIB],1.62

# Test system: 769-P
# Assay: cells
# Type: functional, cell-based
# Conditions: Homo sapiens
# Description: SANGER: Inhibition of human 769-P cell growth in a cell viability assay.
row,Compound,IC50 [µM]
1,CS(=O)(=O)N1CCN(Cc2cc3nc(-c4cccc5[nH]ncc45)nc(N4CCOCC4)c3s2)CC1 [PICTILISIB],3.83

# Test system: MIA PaCa-2;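 note: growth inhibition of MIA PaCa-2 cells, read out with a cell viability assay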
# Assay: cells
# Type: functional, cell-based
# Conditions: Homo sapiens
# Description: SANGER: Inhibition of human MIA-PaCa-2 cell growth in a cell viability assay.
row,Compound,IC50 [µM]
1,CS(=O)(=O)N1CCN(Cc2cc3nc(-c4cccc5[nH]ncc45)nc(N4CCOCC4)c3s2)CC1 [PICTILISIB],> 4

# Test system: Panc1005;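 note: growth inhibition of human PANC-10-05 cells, measured by a cell viability assay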
# Assay: cells
# Type: functional, cell-based
# Conditions: Homo sapiens
# Description: SANGER: Inhibition of human PANC-10-05 cell growth in a cell viability assay.
row,Compound,IC50 [µM]
1,CS(=O)(=O)N1CCN(Cc2cc3nc(-c4cccc5[nH]ncc45)nc(N4CCOCC4)c3s2)CC1 [PICTILISIB],> 4

# Test system: 647-V;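 note: growth inhibition of 647-V cells, read out with a cell viability assay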
# Assay: cells
# Type: functional, cell-based
# Conditions: Homo sapiens
# Description: SANGER: Inhibition of human 647-V cell growth in a cell viability assay.
row,Compound,IC50 [µM]
1,CS(=O)(=O)N1CCN(Cc2cc3nc(-c4cccc5[nH]ncc45)nc(N4CCOCC4)c3s2)CC1 [PICTILISIB],> 4

# Test system: NCI-H441;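 note: growth inhibition of NCI-H441 cells, read out with a cell viability assay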
# Assay: cells
# Type: functional, cell-based
# Conditions: Homo sapiens
# Description: SANGER: Inhibition of human NCI-H441 cell growth in a cell viability assay.
row,Compound,IC50 [µM]
1,CS(=O)(=O)N1CCN(Cc2cc3nc(-c4cccc5[nH]ncc45)nc(N4CCOCC4)c3s2)CC1 [PICTILISIB],> 4

# Test system: G-401
# Assay: cells
# Type: functional, cell-based
# Conditions: Homo sapiens
# Description: SANGER: Inhibition of human G-401 cell growth in a cell viability assay.
row,Compound,IC50 [µM]
1,CS(=O)(=O)N1CCN(Cc2cc3nc(-c4cccc5[nH]ncc45)nc(N4CCOCC4)c3s2)CC1 [PICTILISIB],1.62

# Test system: OE33;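 note: growth inhibition of human OE33 cells, measured by a cell viability assay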
# Assay: cells
# Type: functional, cell-based
# Conditions: Homo sapiens
# Description: SANGER: Inhibition of human OE33 cell growth in a cell viability assay.
row,Compound,IC50 [µM]
1,CS(=O)(=O)N1CCN(Cc2cc3nc(-c4cccc5[nH]ncc45)nc(N4CCOCC4)c3s2)CC1 [PICTILISIB],> 4

# Test system: NCI-H2347;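 note: growth inhibition of the cell line, read out with a cell viability assay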
# Assay: cells
# Type: functional, cell-based
# Conditions: Homo sapiens
# Description: SANGER: Inhibition of human NCI-H2347 cell growth in a cell viability assay.
row,Compound,IC50 [µM]
1,CS(=O)(=O)N1CCN(Cc2cc3nc(-c4cccc5[nH]ncc45)nc(N4CCOCC4)c3s2)CC1 [PICTILISIB],> 4

# Test system: RO82-W-1;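 note: growth inhibition of human RO82-W-1 cells, measured with a cell viability assay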
# Assay: cells
# Type: functional, cell-based
# Conditions: Homo sapiens
# Description: SANGER: Inhibition of human RO82-W-1 cell growth in a cell viability assay.
row,Compound,IC50 [µM]
1,CS(=O)(=O)N1CCN(Cc2cc3nc(-c4cccc5[nH]ncc45)nc(N4CCOCC4)c3s2)CC1 [PICTILISIB],> 4

# Test system: EGI-1;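 note: cell viability readout used to gauge growth inhibition of EGI-1 cells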
# Assay: cells
# Type: functional, cell-based
# Conditions: Homo sapiens
# Description: SANGER: Inhibition of human EGI-1 cell growth in a cell viability assay.
row,Compound,IC50 [µM]
1,CS(=O)(=O)N1CCN(Cc2cc3nc(-c4cccc5[nH]ncc45)nc(N4CCOCC4)c3s2)CC1 [PICTILISIB],1.85
